From patent US20250120372A1, “HUMANIZED MOUSE MODEL OF FIBROSIS” (The Jackson Laboratory, priority 2021, published 2025) come the findings set out here.

Data set [1] concerns NSG-SGM3 BLT mice. Particulars: mouse, in vivo.
Experimental: SLG20 alginate 500 μm diameter spheres (“alginate spheres,” 0.5 ml total implant volume) were implanted into the intraperitoneal (IP) space of pro-fibrotic C57BL/6 mice and various humanized mouse models, retained for 28 days, and analyzed for degree of fibrosis upon alginate sphere retrieval. […] Experiments repeated at least 3 times.
Implanted mice were anesthetized with 3% isoflurane in oxygen and their abdomens were shaved and sterilized using betadine and isopropanol. Preoperatively, all mice received 0.05 mg/kg buprenorphine and 0.2 mL of 0.9% saline SC for pre-surgery analgesia and hydration. A midline incision (0.5 mm) was made and the peritoneal lining was exposed using blunt dissection. The peritoneal wall was then grasped with forceps and a 0.5-1 mm incision was made along the linea alba. 500 μL of spheres were then loaded into a sterile pipette and implanted into the intraperitoneal (IP) space. The incision was then closed using 5-0 PDS II absorbable sutures, and the skin was closed using wound clips and VetBond tissue glue. […] For macrophage depletion, clodrosomes (200 μL/mouse) (Encapsula NanoSciences, Nashville, TN) were injected IP starting at −3 days (prior to implant day 0), and for every 7 days thereafter (on days −3, 4, and 11). […]
Data set [2] deals with NSG-SGM3 BLT mice. Particulars: mouse, in vivo, sc.
Experimental: All wild type male immune-competent C57BL/6 mice or immunodeficient strains used for producing humanized models (described below) were ordered pathogen-free from The Jackson Laboratory (Bar Harbor, ME). Implanted mice were anesthetized with 3% isoflurane in oxygen and their abdomens were shaved and sterilized using betadine and isopropanol. Preoperatively, all mice received 0.05 mg/kg buprenorphine and 0.2 mL of 0.9% saline SC for pre-surgery analgesia and hydration.
For phase contrast imaging retrieved materials were gently washed using Krebs buffer and transferred into 35 mm petri dishes for phase contrast microscopy using an EVOS XL microscope (Advanced Microscopy Group). For bright-field imaging of retrieved materials, samples were gently washed using Krebs buffer and transferred into 35 mm petri dishes for bright-field imaging using a Leica Stereoscopic microscope.
Retrieved material-containing tissue (intraperitoneal and/or subcutaneous) was fixed overnight using 4% paraformaldehyde at 4° C. After fixation, alginate sphere or retrieved tissue samples were washed using 70% alcohol. The materials were then paraffin embedded, sectioned at 5 μm thickness and stained according to standard histological (H&E or Masson's Trichrome) methods.

For the substance “polydimethylsiloxane [PDMS 5 mm molded discs]”, in data set [1], the FBR / fibrosis result is “fibrosis of synthetic biomaterial polymer implants was observed”.
Turning to polystyrene [Polystyrene spheres], the “fibrotic encapsulation upon retrieval” value in data set [2] is “prominent fibrotic encapsulation”. Further, the FBR / fibrosis result in data set [1] is “fibrosis of synthetic biomaterial polymer implants was observed”.
